Values quoted from earlier work in article PMC10979105, “A simple method to resolve rate constants when the binding mechanism obeys induced fit or conformational selection” (The Journal of Biological Chemistry, 2024).

Test system: thrombin
Set-up: method as in PMID 23467412
Conditions: thrombin versus zymogen prethrombin-2; cited from earlier work

## CC1CNc2c(cccc2S(=O)(=O)N[C@@H](CCCNC(=N)N)C(=O)N2CC[C@@H](C)C[C@@H]2C(=O)O)C1 (stereo partly shown) [argatroban]
  affinity for thrombin higher than for prethrombin-2: 200 fold
